Values of other authors, collected in patent US20210220347A1 (priority 2015, published 2021).

Settings: in vivo

Which “Respiratory depression dose response” value does the source give for `CN1CC[C@]23c4c5ccc(O)c4O[C@H]2[C@@H](O)C=C[C@H]3[C@H]1C5` [morphine] here?
Its value is “linear and dose proportional”.
